From the supplement of paper PMC13380429

Key:
Settings in all cases: 72 h
Caco-2 [1] = experiment: cell viability relative to DMSO; higher = less toxic
Calu-3 [2] = experiment: as above
Vero E6 [3] = experiment: as above
U2OS [4] = experiment: as above
HepG2 [5] = experiment: as above
Caco-2 [6] = experiment: drug sensitivity score (DSS) for viability; higher = more toxic; extreme values may be limits of the assay
Calu-3 [7] = experiment: as above
Vero E6 [8] = experiment: as above
U2OS [9] = experiment: as above
HepG2 [10] = experiment: as above
Caco-2 [11] = experiment: relative viability EC50 (midpoint between 100% and the lowest measured viability); higher = less toxic
Calu-3 [12] = experiment: as above
U2OS [13] = experiment: as above
HepG2 [14] = experiment: as above
Vero E6 [15] = experiment: as above

SMILES | cell viability (Caco-2 [1]; 1 nM) [%] | cell viability (Caco-2 [1]; 10 nM) [%] | cell viability (Caco-2 [1]; 100 nM) [%] | cell viability (Caco-2 [1]; 1000 nM) [%] | cell viability (Caco-2 [1]; 10000 nM) [%] | cell viability (Calu-3 [2]; 1 nM) [%] | cell viability (Calu-3 [2]; 10 nM) [%] | cell viability (Calu-3 [2]; 100 nM) [%] | cell viability (Calu-3 [2]; 1000 nM) [%] | cell viability (Calu-3 [2]; 10000 nM) [%] | cell viability (Vero E6 [3]; 1 nM) [%] | cell viability (Vero E6 [3]; 10 nM) [%] | cell viability (Vero E6 [3]; 100 nM) [%] | cell viability (Vero E6 [3]; 1000 nM) [%] | cell viability (Vero E6 [3]; 10000 nM) [%] | cell viability (U2OS [4]; 1 nM) [%] | cell viability (U2OS [4]; 10 nM) [%] | cell viability (U2OS [4]; 100 nM) [%] | cell viability (U2OS [4]; 1000 nM) [%] | cell viability (U2OS [4]; 10000 nM) [%] | cell viability (HepG2 [5]; 1 nM) [%] | cell viability (HepG2 [5]; 10 nM) [%] | cell viability (HepG2 [5]; 100 nM) [%] | cell viability (HepG2 [5]; 1000 nM) [%] | cell viability (HepG2 [5]; 10000 nM) [%] | drug sensitivity score (Caco-2 [6]) | drug sensitivity score (Calu-3 [7]) | drug sensitivity score (Vero E6 [8]) | drug sensitivity score (U2OS [9]) | drug sensitivity score (HepG2 [10]) | relative viability EC50 (Caco-2 [11]) [µM] | relative viability EC50 (Calu-3 [12]) [µM] | relative viability EC50 (U2OS [13]) [µM] | relative viability EC50 (HepG2 [14]) [µM] | relative viability EC50 (Vero E6 [15]) [nM]
CCc1ccc(C2=CC(C)(C)Sc3ccc(C#Cc4ccc(C(=O)O)cc4)cc32)cc1 | 100 | 103 | 97.7 | 100 | 79.4 | 90.9 | 113 | 95.5 | 94.6 | 95.2 | 98.5 | 89.8 | 81.2 | 74.9 | 80.6 | 101 | 102 | 96.6 | 104 | 93.2 | 94.7 | 89.7 | 83.7 | 80.6 | 90.1 | 0.6 | 0 | 6.1 | 0 | 2.9 | > 10 | > 10 | > 10 | > 10 | –
CN(C)CCCn1cc(C2=C(c3c[nH]c4ccccc34)C(=O)NC2=O)c2ccccc21 | 91 | 90.5 | 94.1 | 98 | 89.3 | 105 | 94.2 | 92 | 107 | 68.6 | 101 | 95.2 | 98.3 | 96.3 | 68.8 | 98.8 | 103 | 96.5 | 101 | 70.8 | 94.7 | 96.2 | 102 | 95.2 | 31 | 0 | 1.1 | 2 | 1.2 | 4.5 | > 10 | – | – | 2.6 | –
Cc1c(N2C(=O)[C@@H]3[C@H](O)CCN3C2=O)ccc(C#N)c1Cl | 95.4 | 100 | 89.1 | 93.1 | 90.3 | 106 | 101 | 97.4 | 109 | 105 | – | – | – | – | – | 94.8 | 99.8 | 98.6 | 94.4 | 97.1 | 97.7 | 95.4 | 94 | 93.8 | 97.1 | 0 | 0 | – | 0 | 0 | > 10 | > 10 | > 10 | > 10 | –
COc1cc(N)c(Cl)cc1C(=O)N[C@@H]1CCN(CCCOc2ccc(F)cc2)C[C@@H]1OC (racemic) [cisapride] | 99.8 | 103 | 100 | 98.9 | 90.3 | 99.6 | 101 | 84 | 107 | 110 | – | – | – | – | – | 97.4 | 101 | 93.8 | 98.3 | 93.5 | 99.7 | 101 | 96 | 104 | 102 | 0 | 0 | – | 0 | 0 | > 10 | > 10 | > 10 | > 10 | –
O=C(OCCO)c1ccccc1O [2-hydroxyethyl-salicylate] | 114 | 108 | 100 | 104 | 93.3 | 97.5 | 95.5 | 108 | 108 | 94.8 | – | – | – | – | – | 99.2 | 102 | 98.6 | 104 | 97.6 | 103 | 99.8 | 108 | 100 | 89 | 0 | 0 | – | 0 | 0 | > 10 | > 10 | > 10 | > 10 | –
CCC(O)(CC(N)=O)c1ccccc1 (stereo unspecified) [3-hydroxy-3-phenylpentanamide] | 96.1 | 106 | 102 | 100 | 95.8 | 98.2 | 106 | 89.4 | 103 | 108 | – | – | – | – | – | 95 | 99 | 98.3 | 104 | 99 | 95.9 | 93 | 107 | 100 | 98.1 | 0 | 0 | – | 0 | 0 | > 10 | > 10 | > 10 | > 10 | –
CCOc1nc2c(N)ncnc2n1CC [ANR-94] | 102 | 98.3 | 92.1 | 90.9 | 95.1 | 105 | 95.1 | 96.5 | 95.9 | 102 | – | – | – | – | – | 104 | 96.2 | 101 | 101 | 105 | 102 | 98.3 | 97.3 | 96.9 | 93.2 | 0 | 0 | – | 0 | 0 | > 10 | > 10 | > 10 | > 10 | –
Cc1ccc(NC(=O)c2cccc(C(C)(C)C#N)c2)cc1Nc1ccc2ncn(C)c(=O)c2c1 [AZ-628] | 95.8 | 102 | 98.2 | 81.9 | 63.8 | – | – | – | – | – | 101 | 102 | 102 | 84.2 | 52.4 | 98.7 | 98.6 | 93.2 | 89.7 | 43.3 | 97.5 | 102 | 69.9 | 22 | 16.6 | 3.7 | – | 4.8 | 4.8 | 18.1 | – | – | 1.81 | 0.148 | –
O=C(NCCCNc1nc(Nc2cccc(NC(=O)N3CCCC3)c2)ncc1I)c1cccs1 [BX-795] | 98.2 | 98 | 105 | 92.6 | 63.7 | 93.4 | 97.3 | 102 | 107 | 89.2 | 97.8 | 98.4 | 97 | 101 | 61.7 | 104 | 99.3 | 100 | 90.9 | 31.2 | 96.9 | 90.4 | 96.7 | 101 | 34.7 | 2.9 | 0 | 1.8 | 5.3 | 3.5 | – | > 10 | 2.1 | 3.26 | –
Cc1cc(O)cc2c1O[C@](C)(CCC[C@H](C)CCC[C@H](C)CCCC(C)C)CC2 [D-delta-tocopherol] | 102 | 109 | 99.8 | 103 | 99.1 | 89.4 | 96.6 | 84.8 | 93.8 | 79.4 | – | – | – | – | – | 97.7 | 103 | 96.9 | 106 | 98 | 114 | 110 | 116 | 103 | 99.4 | 0 | 0 | – | 0 | 0 | > 10 | > 10 | > 10 | > 10 | –
CC(=O)c1ccc2c(c1)[C@@H]1C=CC[C@@H]1[C@H](c1cc3c(cc1Br)OCO3)N2 [G-1] | 96.8 | 93.4 | 102 | 98 | 58.2 | – | – | – | – | – | 102 | 93.3 | 95.8 | 84.8 | 37.1 | 100 | 98.2 | 94.3 | 102 | 49.7 | 95.4 | 88.4 | 111 | 105 | 36.4 | 2.4 | – | 5.8 | 2.5 | 3.1 | – | – | 3.38 | 3.53 | 1570
COc1cccc(OC)c1-c1cc(C(=O)N[C@@H](CC(C)C)C(=O)O)nn1-c1ccnc2cc(Cl)ccc12 [TC-NTR1-17] | 103 | 99.6 | 100 | 91.7 | 99.9 | 117 | 102 | 93 | 104 | 104 | – | – | – | – | – | – | – | – | – | – | 102 | 106 | 97 | 106 | 106 | 0 | 0 | – | – | 0 | > 10 | > 10 | – | > 10 | –
Cc1c(C(=O)Nc2ccc(N3CCC(N4CCOCC4)CC3)c(C#N)c2)cnn1-c1ccc(Cl)cc1 [Y-320] | 104 | 93.8 | 103 | 87.5 | 74.9 | 103 | 103 | 90.1 | 89.6 | 69.9 | 104 | 104 | 106 | 104 | 74.6 | – | – | – | – | – | 106 | 109 | 105 | 77.4 | 23 | 2.4 | 2.2 | 0.8 | – | 7.6 | – | – | – | 1.42 | –
C#Cc1cncc([C@@H]2CCCN2C)c1 [altinicline] | 101 | 92.9 | 102 | 98.7 | 97.7 | 98.3 | 99 | 93.9 | 102 | 110 | – | – | – | – | – | 102 | 91.9 | 102 | 97.4 | 98.9 | 98.5 | 96.8 | 106 | 105 | 93.5 | 0 | 0 | – | 0 | 0 | > 10 | > 10 | > 10 | > 10 | –
Nc1c(Br)cc(Br)cc1CN[C@H]1CC[C@H](O)CC1 [ambroxol] | 100 | 92.8 | 98.5 | 89.4 | 97.5 | 105 | 101 | 102 | 91.8 | 88.7 | – | – | – | – | – | 103 | 99 | 103 | 101 | 101 | 102 | 98.5 | 99.6 | 103 | 87.5 | 0 | 0.2 | – | 0 | 0 | > 10 | > 10 | > 10 | > 10 | –
C[C@H](c1ccc2ccc(OC3CCC(C(F)(F)F)CC3)c(C(F)(F)F)c2c1)N1C2CCC1CC(C(=O)O)C2 (stereo partly specified) [autotaxin-modulator-1] | 105 | 91.2 | 96.1 | 96.6 | 83.2 | 114 | 97.6 | 100 | 106 | 96.2 | 99.2 | 103 | 96.4 | 93.8 | 89 | 93.3 | 95.9 | 94.3 | 95.1 | 83.7 | 90.4 | 91 | 105 | 96 | 71.9 | 0.7 | 0 | 0 | 0.1 | 1.8 | > 10 | > 10 | > 10 | – | > 10000
